Among the data in patent publication US20260028326A1, “COMPOUND BASED ON ISOINDOLINE-SUBSTITUTED GLUTARIMIDE BACKBONE AND USE THEREOF” (GLUETACS THERAPEUTICS (SHANGHAI) CO., LTD., priority 2022, published 2026) are IC50 values, retold here.

Sequence of human Cereblon WT GST-tagged protein (Q96SW2 whole entry): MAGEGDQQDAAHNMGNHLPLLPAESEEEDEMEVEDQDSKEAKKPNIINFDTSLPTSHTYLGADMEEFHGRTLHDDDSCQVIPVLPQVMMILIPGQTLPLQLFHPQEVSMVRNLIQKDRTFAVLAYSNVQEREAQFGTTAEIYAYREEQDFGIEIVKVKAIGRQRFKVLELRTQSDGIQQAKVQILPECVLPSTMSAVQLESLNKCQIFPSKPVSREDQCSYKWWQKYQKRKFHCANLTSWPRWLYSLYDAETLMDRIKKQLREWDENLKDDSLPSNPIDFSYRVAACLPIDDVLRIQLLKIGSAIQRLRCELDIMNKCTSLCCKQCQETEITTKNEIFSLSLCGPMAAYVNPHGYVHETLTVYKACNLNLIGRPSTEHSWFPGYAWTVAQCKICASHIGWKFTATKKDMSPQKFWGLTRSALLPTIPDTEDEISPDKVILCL

The assay deals with human Cereblon WT GST-tagged protein (Homo sapiens (Human), UniProt Q96SW2). Put plainly: CRBN-binding affinity, HTRF (CEREBLON BINDING kit). In short, it runs like this:
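GST-tagged human WT Cereblon incubated with compound, then Thalidomide-Re tracer and anti-GST Eu antibody added. Displacement read by HTRF, reported as CRBN binding inhibition rate against blank control wells without protein.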
With `O=C1CCC(N2Cc3cc(CN4C5CC4CN(Cc4ccccc4-c4ccc(Cl)cc4)C5)cc(F)c3C2=O)C(=O)N1` (stereo not shown) [GT-05610, 3-(5-((3-((4′-chloro-[1,1′-biphenyl]-2-yl)methyl)-3,6-diazabicyclo[3.1.1]heptan-6-yl)methyl)-7-fluoro-1-oxoisoindolin-2-yl)piperidine-2,6-dione], the IC50 was determined as 0.64 µM.

In the case of `O=C1CCC(N2Cc3cc(CN4CCCN(Cc5ccccc5-c5ccc(Cl)cc5)CC4)ccc3C2=O)C(=O)N1` (stereo not shown) [GT-05611, 3-(5-((4-((4′-chloro-[1,1′-biphenyl]-2-yl)methyl)-1,4-diazepan-1-yl)methyl)-1-oxoisoindolin-2-yl)piperidine-2,6-dione], the IC50 was determined as 0.63 µM. This IC50 and that of the compound before are within 1.5-fold of each other.

In turn, `CC1(C)CCC(CN2CCN(C(=O)c3ccc4c(c3)CN(C3CCC(=O)NC3=O)C4=O)CC2)=C(c2ccc(F)cc2)C1` (stereo not shown) [GT-05614, 3-(5-(4-((4′-fluoro-5,5-dimethyl-3,4,5,6-tetrahydro-[1,1′-biphenyl]-2-yl)methyl)piperazine-1-carbonyl)-1-oxoisoindolin-2-yl)piperidine-2,6-dione] displayed an IC50 of 1.41 µM.

For `O=C1CCC(N2Cc3cc(C(=O)N4CCCN(Cc5ccccc5-c5ccc(Cl)cc5)CC4)ccc3C2=O)C(=O)N1` (stereo not shown) [GT-05616, 3-(5-(4-((4′-chloro-[1,1′-biphenyl]-2-yl)methyl)-1,4-diazepane-1-carbonyl)-1-oxoisoindolin-2-yl)piperidine-2,6-dione], the IC50 worked out at 0.9 µM. This IC50 lies about 1.6-fold lower than the previous one.

Compound `O=C1CCC(N2Cc3cc(CN4CC5CCC(C4)N5Cc4ccccc4-c4ccc(Cl)cc4)ccc3C2=O)C(=O)N1` (stereo not shown) [GT-05618, 3-(5-((8-((4′-chloro-[1,1′-biphenyl]-2-yl)methyl)-3,8-diazabicyclo[3.2.1]octan-3-yl)methyl)-1-oxoisoindolin-2-yl)piperidine-2,6-dione] showed an IC50 of 0.58 µM.

Compound `O=C1CCC(N2Cc3cc(CN4CC5CCC4CN5Cc4ccccc4-c4ccc(Cl)cc4)ccc3C2=O)C(=O)N1` (stereo not shown) [GT-05619, 3-(5-((5-((4′-chloro-[1,1′-biphenyl]-2-yl)methyl)-2,5-diazabicyclo[2.2.2]octan-2-yl)methyl)-1-oxoisoindolin-2-yl)piperidine-2,6-dione] showed an IC50 of 0.59 µM. The IC50 values of the last two compounds are within 1.5-fold of each other.

`O=C1CCC(N2C(=O)c3ccc(C(=O)N4CCN(Cc5cccc(-c6ccc(Cl)cc6)c5)CC4)cc3C2=O)C(=O)N1` (stereo not shown) [GT-05631, 5-(4-((4′-chloro-[1,1′-biphenyl]-3-yl)methyl)piperazine-1-carbonyl)-2-(2,6-dioxopiperidin-3-yl)isoindoline-1,3-dione] registered an IC50 of 1.75 µM.

`O=C1CCC(N2Cc3cc(CN4CCN(C(=O)c5cnc(-c6ccccc6)cn5)CC4)ccc3C2=O)C(=O)N1` (stereo not shown) [GT-05635, 3-(1-oxo-5-((4-(5-phenylpyrazine-2-carbonyl)piperazin-1-yl)methyl)isoindolin-2-yl)piperidine-2,6-dione] came in with an IC50 of 1 µM.

Regarding `O=C1CCC(N2Cc3cc(C(=O)N4CC5(CN(Cc6ccccc6-c6ccc(Cl)cc6)C5)C4)ccc3C2=O)C(=O)N1` (stereo not shown) [GT-05637, 3-(5-(6-((4′-chloro-[1,1′-biphenyl]-2-yl)methyl)-2,6-diazaspiro[3.3]heptane-2-carbonyl)-1-oxoisoindolin-2-yl)piperidine-2,6-dione], the IC50 turned out to be 1.07 µM.

Take `O=C1CCC(N2Cc3cc(C(=O)N4C5CCC4CN(Cc4ccccc4-c4ccc(Cl)cc4)C5)ccc3C2=O)C(=O)N1` (stereo not shown) [GT-05638, 3-(5-(3-((4′-chloro-[1,1′-biphenyl]-2-yl)methyl)-3,8-diazabicyclo[3.2.1]octane-8-carbonyl)-1-oxoisoindolin-2-yl)piperidine-2,6-dione]: the IC50 came to 1.21 µM.

Take `O=C1CCC(N2Cc3cc(C(=O)N4CC5CC4CN5Cc4ccccc4-c4ccc(Cl)cc4)ccc3C2=O)C(=O)N1` (stereo not shown) [GT-05639, 3-(5-(5-((4′-chloro-[1,1′-biphenyl]-2-yl)methyl)-2,5-diazabicyclo[2.2.1]heptane-2-carbonyl)-1-oxoisoindolin-2-yl)piperidine-2,6-dione]: the IC50 turned out to be 0.78 µM.

In turn, `O=C1CCC(N2Cc3cc(C(=O)N4CC5(CCN(Cc6ccccc6-c6ccc(Cl)cc6)CC5)C4)ccc3C2=O)C(=O)N1` (stereo not shown) [GT-05641, 3-(5-(7-((4′-chloro-[1,1′-biphenyl]-2-yl)methyl)-2,7-diazaspiro[3.5]nonane-2-carbonyl)-1-oxoisoindolin-2-yl)piperidine-2,6-dione] came in with an IC50 of 1.48 µM.

For the compound `O=C1CCC(N2Cc3cc(C(=O)N4C5CC4CN(Cc4ccccc4-c4ccc(Cl)cc4)C5)ccc3C2=O)C(=O)N1` (stereo not shown) [GT-05643, 3-(5-(3-((4′-chloro-[1,1′-biphenyl]-2-yl)methyl)-3,6-diazabicyclo[3.1.1]heptane-6-carbonyl)-1-oxoisoindolin-2-yl)piperidine-2,6-dione], the IC50 was 0.59 µM.

In the case of `O=C1CCC(N2Cc3cc(CN4CC5CN(C(=O)c6ccccc6-c6ccc(Cl)cc6)CC5C4)ccc3C2=O)C(=O)N1` (stereo not shown) [GT-05645, 3-(5-((5-(4′-chloro-[1,1′-biphenyl]-2-carbonyl)hexahydropyrrolo[3,4-c]pyrrol-2(1H)-yl)methyl)-1-oxoisoindolin-2-yl)piperidine-2,6-dione], the IC50 worked out at 0.7 µM.

As for `CC1(C)CCC(CN2CC3CN(Cc4ccc5c(c4)CN(C4CCC(=O)NC4=O)C5=O)CC3C2)=C(c2ccc(Cl)cc2)C1` (stereo not shown) [GT-05653, 3-(5-((5-((4′-chloro-5,5-dimethyl-3,4,5,6-tetrahydro-[1,1′-biphenyl]-2-yl)methyl)hexahydropyrrolo[3,4-c]pyrrol-2(1H)-yl)methyl)-1-oxoisoindolin-2-yl)piperidine-2,6-dione], the IC50 was determined as 1.06 µM. Against the preceding compound, the IC50 is about 1.5-fold higher.

For `CC1(C)CCC(C(=O)N2CC3CN(C(=O)c4ccc5c(c4)CN(C4CCC(=O)NC4=O)C5=O)CC3C2)=C(c2ccc(Cl)cc2)C1` (stereo not shown) [GT-05659, 3-(5-(5-(4′-chloro-5,5-dimethyl-3,4,5,6-tetrahydro-[1,1′-biphenyl]-2-carbonyl)octahydropyrrolo[3,4-c]pyrrole-2-carbonyl)-1-oxoisoindolin-2-yl)piperidine-2,6-dione], the IC50 was 0.66 µM. This IC50 lies about 1.6-fold lower than the previous one.

The compound `CC1(C)CCC(C(=O)N2C3CC2CN(Cc2ccc4c(c2)CN(C2CCC(=O)NC2=O)C4=O)C3)=C(c2ccc(Cl)cc2)C1` (stereo not shown) [GT-05660, 3-(5-((6-(4′-chloro-5,5-dimethyl-3,4,5,6-tetrahydro-[1,1′-biphenyl]-2-carbonyl)-3,6-diazabicyclo[3.1.1]heptan-3-yl)methyl)-1-oxoisoindolin-2-yl)piperidine-2,6-dione] returned an IC50 of 1.04 µM.

Turning to `CC1(C)CCC(C(=O)N2C3CC2CN(C(=O)c2ccc4c(c2)CN(C2CCC(=O)NC2=O)C4=O)C3)=C(c2ccc(Cl)cc2)C1` (stereo not shown) [GT-05661, 3-(5-(6-(4′-chloro-5,5-dimethyl-3,4,5,6-tetrahydro-[1,1′-biphenyl]-2-carbonyl)-3,6-diazabicyclo[3.1.1]heptane-3-carbonyl)-1-oxoisoindolin-2-yl)piperidine-2,6-dione], the IC50 was found to be 0.96 µM.

`CC1(C)CCC(C(=O)N2CC3CCC2CN3C(=O)c2ccc3c(c2)CN(C2CCC(=O)NC2=O)C3=O)=C(c2ccc(Cl)cc2)C1` (stereo not shown) [GT-05663, 3-(5-(5-(4′-chloro-5,5-dimethyl-3,4,5,6-tetrahydro-[1,1′-biphenyl]-2-carbonyl)-2,5-diazabicyclo[2.2.2]octane-2-carbonyl)-1-oxoisoindolin-2-yl)piperidine-2,6-dione] yielded an IC50 of 1.09 µM.

What is called IC50 is the point on the concentration scale where inhibition reaches its midpoint. Low values mean greater potency in that assay, high ones weaker potency in that assay.
